From patent publication US9795607B2, “Substituted pyrrolopyrimidine compounds, compositions thereof, and methods of treatment therewith” (Signal Pharmaceutical, LLC, priority 2013, dated 2017) come the findings set out here.

The test system of one test is Triple negative breast cancer cell line CAL51. In words: Cell Titer Glo proliferation assay, CAL51. Format: cell-based. The note with it: Homo sapiens, CAL-51; CAL51 cell proliferation (Table 1); read-out: Act. Level. The protocol:
Cell Titer Glo Proliferation Assay.
Triple negative breast cancer cell line CAL51 was purchased from DSMZ. […] Allcell lines were maintained in growth media consisting of 90% high glucose Dulbecco's Modified Eagle Medium or RPMI1640 (Invitrogen), 10% fetal bovine serum (Hyclone), and 2 mM L-glutamine (Invitrogen). […] After overnight culture, compound stock (30 mM) was diluted serially in DMSO, further diluted in growth media, and was added to each well as a 10× concentrated solution in a volume of 11 μL, mixed, and allowed to incubate with cells. The compound vehicle (DMSO) was maintained at a final concentration of 0.2% in all wells. After 72 h, 100 μL of Cell Titer Glo solution (Promega) was added to each well of the 96-well plate. The plate was placed on a shaker for 2 minutes. After 10 minutes incubation, the luminescence signal was detected with Envision microplate reader (Perkin Elmer).
On the technique in general: Cellular ATP, detected with luciferase, serves as a proxy for viable cell number.
For `CNC(=O)c1ccc(-c2c[nH]c3nc(Nc4ccc(C(=O)NC)cc4Cl)nc(OC(C)C)c23)cc1` [Example 432, 3-chloro-4-(4-isopropoxy-5-(4-(methylcarbamoyl)phenyl)-7H-pyrrolo[2,3-d]pyrimidin-2-ylamino)-N-methylbenzamide], the IC50 is below 100 nM.

`COc1nc(Nc2ccc(C(=O)N(C)C)cc2C)nc2[nH]cc(-c3ccc4c(c3)nc(C)n4C)c12` [Example 410, 4-(5-(1,2-dimethyl-1H-benzo[d]imidazol-5-yl)-4-methoxy-7H-pyrrolo[2,3-d]pyrimidin-2-ylamino)-N,N,3-trimethylbenzamide]: the IC50 is 1000 to 10000 nM. Still for that read-out and setting: the result for `COc1nc(Nc2ccc3c(cnn3C)c2C)nc2[nH]cc(-c3ccncc3)c12` [Example 419, N-(1,4-dimethyl-1H-indazol-5-yl)-4-methoxy-5-(pyridin-4-yl)-7H-pyrrolo[2,3-d]pyrimidin-2-amine] reads 100 to 400 nM; that for `COc1nc(Nc2ccc(C(=O)N(C)C)cc2C)nc2[nH]cc(-c3ccc4c(C)noc4c3)c12` [Example 400, 4-(4-methoxy-5-(3-methylbenzo[d]isoxazol-6-yl)-7H-pyrrolo[2,3-d]pyrimidin-2-ylamino)-N,N,3-trimethylbenzamide], below 100 nM; that for `CNC(=O)c1ccc(-c2c[nH]c3nc(Nc4ccc(C(=O)NC)cc4Cl)nc(OC)c23)cc1` [Example 428, 3-chloro-4-(4-methoxy-5-(4-(methylcarbamoyl)phenyl)-7H-pyrrolo[2,3-d]pyrimidin-2-ylamino)-N-methylbenzamide], below 100 nM. With `COc1nc(Nc2ccc(C(=O)N(C)C)cc2C)nc2[nH]cc(-c3ccc(S(C)(=O)=O)cc3)c12` [Example 411, 4-(4-methoxy-5-(4-(methylsulfonyl)phenyl)-7H-pyrrolo[2,3-d]pyrimidin-2-ylamino)-N,N,3-trimethylbenzamide], the IC50 was 1000 to 10000 nM. Turning to `COc1cc(C(=O)N(C)C)ncc1Nc1nc(OC)c2c(-c3ccnc(F)c3)c[nH]c2n1` [Example 415, 5-(5-(2-fluoropyridin-4-yl)-4-methoxy-7H-pyrrolo[2,3-d]pyrimidin-2-ylamino)-4-methoxy-N,N-dimethylpicolinamide], the IC50 fell in the range of 400 to 1000 nM.

`COc1nc(Nc2ccc(C(=O)N(C)C)cc2C)nc2[nH]cc(-c3ccc4[nH]c(C)nc4c3)c12` [Example 399, 4-(4-methoxy-5-(2-methyl-1H-benzo[d]imidazol-5-yl)-7H-pyrrolo[2,3-d]pyrimidin-2-ylamino)-N,N,3-trimethylbenzamide]: the IC50 was below 100 nM.

The test is the same for the next values; noted with them: Homo sapiens, CAL-51; CAL51 cell proliferation, Cell Titer Glo; read-out: Act. Level.
As to `CNC(=O)c1ccc(Nc2nc(OC)c3c(-c4ccc5c(C)noc5c4)c[nH]c3n2)c(OC)c1` [Example 388, 3-methoxy-4-(4-methoxy-5-(3-methylbenzo[d]isoxazol-6-yl)-7H-pyrrolo[2,3-d]pyrimidin-2-ylamino)-N-methylbenzamide], the IC50 lay in the range of 100 to 400 nM. As for `CNC(=O)c1ccc(-c2c[nH]c3nc(Nc4ccc(C(=O)NC5COC5)cc4C)nc(OC4CCC4)c23)cc1` [Example 332, 4-(4-cyclobutoxy-5-(4-(methylcarbamoyl)phenyl)-7H-pyrrolo[2,3-d]pyrimidin-2-ylamino)-3-methyl-N-(oxetan-3-yl)benzamide], the IC50 was below 100 nM. `COc1nc(Nc2cn(C)nc2C)nc2[nH]cc(-c3ccncc3)c12` [Example 393, N-(1,3-dimethyl-1H-pyrazol-4-yl)-4-methoxy-5-(pyridin-4-yl)-7H-pyrrolo[2,3-d]pyrimidin-2-amine]: the IC50 is 100 to 400 nM. With `COc1cc(C(=O)NC2COC2)ccc1Nc1nc(OC)c2c(-c3cc(C)nc(C)c3)c[nH]c2n1` [Example 384, 4-(5-(2,6-dimethylpyridin-4-yl)-4-methoxy-7H-pyrrolo[2,3-d]pyrimidin-2-ylamino)-3-methoxy-N-(oxetan-3-yl)benzamide], the IC50 was below 100 nM. Regarding `COc1cc(C(=O)N2C[C@H]2CO)ccc1Nc1nc(OC2CCCC2)c2c(-c3ccc4nc(C)oc4c3)c[nH]c2n1` [Example 350, (S)-(4-(4-(cyclopentyloxy)-5-(2-methylbenzo[d]oxazol-6-yl)-7H-pyrrolo[2,3-d]pyrimidin-2-ylamino)-3-methoxyphenyl)(2-(hydroxymethyl)aziridin-1-yl)methanone], the IC50 was in the range of 100 to 400 nM. Regarding `CNC(=O)c1ccc(-c2c[nH]c3nc(Nc4cnn(CC(C)(C)O)c4Cl)nc(OC4CCC4)c23)cc1` [Example 372, 4-(2-(5-chloro-1-(2-hydroxy-2-methylpropyl)-1H-pyrazol-4-ylamino)-4-cyclobutoxy-7H-pyrrolo[2,3-d]pyrimidin-5-yl)-N-methylbenzamide], the IC50 is below 100 nM. On the same count and under the same terms, the result for `CNC(=O)c1ccc(-c2c[nH]c3nc(Nc4ccc(C(=O)NC5CN(C)C5)cc4OC)nc(OC4CCC4)c23)cc1` [Example 348, 4-(4-cyclobutoxy-5-(4-(methylcarbamoyl)phenyl)-7H-pyrrolo[2,3-d]pyrimidin-2-ylamino)-3-methoxy-N-(1-methylazetidin-3-yl)benzamide] reads 100 to 400 nM.

Regarding `COc1cc(C(=O)NC2COC2)ccc1Nc1nc(OC2CC2)c2c(-c3ccc4nc(C)oc4c3)c[nH]c2n1` [Example 369, 4-(4-cyclopropoxy-5-(2-methylbenzo[d]oxazol-6-yl)-7H-pyrrolo[2,3-d]pyrimidin-2-ylamino)-3-methoxy-N-(oxetan-3-yl)benzamide], the IC50 lay within 100 to 400 nM. Turning to `CNC(=O)c1ccc(Nc2nc(OC3CCCC3)c3c(-c4cccc(O)c4)c[nH]c3n2)c(OC)c1` [Example 323, 4-(4-(cyclopentyloxy)-5-(3-hydroxyphenyl)-7H-pyrrolo[2,3-d]pyrimidin-2-ylamino)-3-methoxy-N-methylbenzamide], the IC50 was below 100 nM. On to `CNC(=O)c1ccc(Nc2nc(OC3CCCC3)c3c(-c4cccc(N(C)C)c4)c[nH]c3n2)c(OC)c1` [Example 322, 4-(4-(cyclopentyloxy)-5-(3-(dimethylamino)phenyl)-7H-pyrrolo[2,3-d]pyrimidin-2-ylamino)-3-methoxy-N-methylbenzamide], for which the IC50 was in the range of 400 to 1000 nM. The same measure, in the same setting: the result for `CNC(=O)c1ccc(Nc2nc(OC3CCCC3)c3c(-c4cccc(C#N)c4)c[nH]c3n2)c(OC)c1` [Example 324, 4-(5-(3-cyanophenyl)-4-(cyclopentyloxy)-7H-pyrrolo[2,3-d]pyrimidin-2-ylamino)-3-methoxy-N-methylbenzamide] reads 1000 to 10000 nM; that for `CNC(=O)c1ccc(-c2c[nH]c3nc(Nc4ccc(C(=O)NC5CN(C)C5)cc4OC)nc(OC(C)C)c23)cc1` [Example 357, 4-(4-isopropoxy-5-(4-(methylcarbamoyl)phenyl)-7H-pyrrolo[2,3-d]pyrimidin-2-ylamino)-3-methoxy-N-(1-methylazetidin-3-yl)benzamide], below 100 nM; that for `CNC(=O)c1ccc(-c2c[nH]c3nc(Nc4ccc(C(=O)NC5COC5)cc4OC)nc(OC4COC4)c23)cc1` [Example 359, 3-methoxy-4-(5-(4-(methylcarbamoyl)phenyl)-4-(oxetan-3-yloxy)-7H-pyrrolo[2,3-d]pyrimidin-2-ylamino)-N-(oxetan-3-yl)benzamide], 100 to 400 nM. Same read-out and setting: the result for `COCCOc1nc(Nc2ccc(C(=O)NC3COC3)cc2OC)nc2[nH]cc(-c3ccc4nc(C)oc4c3)c12` [Example 365, 3-methoxy-4-(4-(2-methoxyethoxy)-5-(2-methylbenzo[d]oxazol-6-yl)-7H-pyrrolo[2,3-d]pyrimidin-2-ylamino)-N-(oxetan-3-yl)benzamide] reads below 100 nM.
